{"source": "ChEMBL document CHEMBL1649479", "about": "“In vitro activity of doripenem against Burkholderia pseudomallei” (2009)", "assay_type_in_all_cases": "functional", "key": {"[1]": {"system": "Burkholderia pseudomallei", "assay": "Antimicrobial activity against Burkholderia pseudomallei by agar dilution method"}, "[2]": {"system": "Burkholderia pseudomallei", "assay": "Antimicrobial activity against Burkholderia pseudomallei by Etest method"}, "Escherichia coli": {"system": "Escherichia coli", "assay": "Antimicrobial activity against Escherichia coli ATCC 25922 by agar dilution method"}, "Pseudomonas aeruginosa": {"system": "Pseudomonas aeruginosa", "assay": "Antimicrobial activity against Pseudomonas aeruginosa ATCC 27853 by agar dilution method"}, "[3]": {"system": "Burkholderia pseudomallei", "assay": "Selectivity ratio of MIC for Burkholderia pseudomallei by agar dilution method to MIC for Burkholderia pseudomallei by Etest method"}, "[4]": {"settings": "Burkholderia pseudomallei, read-out: MIC90"}}, "data": [{"molecule": "C[C@@H](O)[C@H]1C(=O)N2C(C(=O)O)=C(S[C@@H]3CN[C@H](CNS(N)(=O)=O)C3)[C@H](C)[C@H]12", "note": "[DORIPENEM]", "values": [{"measurement": "MIC90", "setting": "[1]", "result": "<=2 ug ml-1"}, {"measurement": "inhibition zone (IZ)", "setting": "[1]", "result": 24, "unit": "mm"}, {"measurement": "MIC50", "setting": "[1]; Burkholderia pseudomallei", "result": 1, "unit": "µg/mL"}, {"measurement": "MIC90", "setting": "[1]; [4]", "result": 1.5, "unit": "µg/mL"}, {"measurement": "MIC", "setting": "[2]", "result": 0.19, "unit": "µg/mL"}, {"measurement": "MIC50", "setting": "[2]", "result": 0.5, "unit": "µg/mL"}, {"measurement": "MIC90", "setting": "[2]", "result": 0.75, "unit": "µg/mL"}, {"measurement": "MIC", "setting": "Escherichia coli", "result": 0.012, "unit": "µg/mL"}, {"measurement": "MIC", "setting": "Pseudomonas aeruginosa", "result": 0.125, "unit": "µg/mL"}, {"measurement": "Ratio", "setting": "[3]", "result": 2}]}, {"molecule": "C[C@@H](O)[C@H]1C(=O)N2C(C(=O)O)=C(SCCNC=N)C[C@H]12", "note": "[IMIPENEM ANHYDROUS]", "values": [{"measurement": "MIC50", "setting": "[1]; Burkholderia pseudomallei", "result": 1, "unit": "µg/mL"}, {"measurement": "MIC90", "setting": "[1]; [4]", "result": 1, "unit": "µg/mL"}, {"measurement": "MIC50", "setting": "[2]", "result": 0.5, "unit": "µg/mL"}, {"measurement": "MIC90", "setting": "[2]", "result": 1, "unit": "µg/mL"}]}, {"molecule": "C[C@@H](O)[C@H]1C(=O)N2C(C(=O)O)=C(S[C@@H]3CN[C@H](C(=O)N(C)C)C3)[C@H](C)[C@H]12", "note": "[MEROPENEM]", "values": [{"measurement": "MIC50", "setting": "[1]; Burkholderia pseudomallei", "result": 3, "unit": "µg/mL"}, {"measurement": "MIC90", "setting": "[1]; [4]", "result": 4, "unit": "µg/mL"}, {"measurement": "MIC50", "setting": "[2]", "result": 1, "unit": "µg/mL"}, {"measurement": "MIC90", "setting": "[2]", "result": 2, "unit": "µg/mL"}]}]}
